Source: US7217711B2, “Piperazin-1-yl and 2-([1,4]diazepan-1-yl)-imidazo[4,5-d]-pyridazin-4-ones, the preparation thereof and their use as pharmaceutical compositions” (Boehringer Ingelheim International GmbH, priority 2003, dated 2007)

What was measured:
DPP-IV = biological target: T1, DPP-IV (Homo sapiens, UniProt P27487); experiment: DPP-IV assay with extract of Caco-2 cells as DPP IV source, AFC substrate, fluorescence; type: biochemical; details: extract of human colon carcinoma cell line Caco-2; substrate 100 μM; 60 minutes at ambient temperature; read-out: DPP IV inhibition IC50
T1 construct: an extract of the human colon carcinoma cell line Caco-2 is used as the DPP IV source; endogenous in cells; host or cells: Caco-2 (human colon carcinoma), differentiated to induce DPP-IV expression; Nonidet-P40 solubilised extract
Method: The cell extract was obtained from cells solubilised in a buffer (10 mM Tris HCl, 0.15 M NaCl, 0.04 t.i.u. aprotinin, 0.5% Nonidet-P40, pH 8.0) by centrifugation at 35,000 g for 30 minutes at 4° C. (to remove cell debris).
The DPP-IV assay was carried out as follows:
50 μl of substrate solution (AFC; AFC is amido-4-trifluoromethylcoumarin), final concentration 100 μM, were placed in black microtitre plates. 20 μl of assay buffer (final concentrations 50 mM Tris HCl pH 7.8, 50 mM NaCl, 1% DMSO) was pipetted in. The reaction was started by the addition of 30 μl of solubilised Caco-2 protein (final concentration 0.14 μg of protein per well). The test substances under investigation were typically added prediluted to 20 μl, while the volume of assay buffer was then reduced accordingly. The reaction was carried out at ambient temperature, the incubation period was 60 minutes. […] Dummy values (corresponding to 0% activity) were obtained in mixtures with no Caco-2 protein (volume replaced by assay buffer), control values (corresponding to 100% activity) were obtained in mixtures without any added substance.

rats = experiment: Tolerability in rats after oral administration; type: in vivo; details: oral administration of 10 mg/kg

T1 sequence (P27487 whole entry): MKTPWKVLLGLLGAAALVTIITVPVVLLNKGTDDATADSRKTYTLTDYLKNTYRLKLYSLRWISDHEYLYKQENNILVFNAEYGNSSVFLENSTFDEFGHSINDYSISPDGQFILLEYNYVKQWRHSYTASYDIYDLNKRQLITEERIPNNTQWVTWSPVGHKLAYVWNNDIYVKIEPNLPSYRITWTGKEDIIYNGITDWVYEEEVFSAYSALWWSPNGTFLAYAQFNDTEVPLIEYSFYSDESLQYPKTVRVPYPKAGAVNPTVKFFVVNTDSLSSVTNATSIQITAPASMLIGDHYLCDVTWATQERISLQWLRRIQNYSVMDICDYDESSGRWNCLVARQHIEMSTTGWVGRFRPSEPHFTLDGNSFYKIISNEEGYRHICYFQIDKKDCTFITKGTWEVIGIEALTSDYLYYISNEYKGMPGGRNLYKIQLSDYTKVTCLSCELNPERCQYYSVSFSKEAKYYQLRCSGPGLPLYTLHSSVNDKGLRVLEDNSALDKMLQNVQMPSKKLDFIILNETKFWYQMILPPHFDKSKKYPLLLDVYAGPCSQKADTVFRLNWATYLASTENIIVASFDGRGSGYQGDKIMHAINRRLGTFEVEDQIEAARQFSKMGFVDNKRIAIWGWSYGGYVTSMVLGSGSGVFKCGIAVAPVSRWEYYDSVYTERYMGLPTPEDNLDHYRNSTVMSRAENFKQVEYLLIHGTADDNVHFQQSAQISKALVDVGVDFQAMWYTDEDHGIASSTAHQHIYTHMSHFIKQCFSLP

Row | Compound | IC50 (DPP-IV) [nM] | toxic side effects (rats)
1 | CC#CCn1c(N2CCCNCC2)nc2cnn(Cc3cc(C)c4nc(C)c(C)nc4c3)c(=O)c21 [1(2), 2-([1,4]diazepan-1-yl)-3-(2-butyn-1-yl)-5-[(2,3,8-trimethyl-quinoxalin-6-yl)methyl]-3,5-dihydro-imidazo[4,5-d]pyridazin-4-one] | 17 | –
2 | CC#CCn1c(N2CCNCC2)nc2cnn(Cc3nc4c(C)cccc4o3)c(=O)c21 [1(9), 2-(piperazin-1-yl)-3-(2-butyn-1-yl)-5-[(4-methyl-benzoxazol-2-yl)methyl]-3,5-dihydro-imidazo[4,5-d]pyridazin-4-one] | 3 | –
3 | CC#CCn1c(N2CCNCC2)nc2cnn(Cc3ccc4c(c3)nnn4C)c(=O)c21 [1(11), 2-(piperazin-1-yl)-3-(2-butyn-1-yl)-5-[(1-methyl-1H-benzotriazol-5-yl)methyl]-3,5-dihydro-imidazo[4,5-d]pyridazin-4-one] | 2 | –
4 | CC#CCn1c(N2CCCNCC2)nc2cnn(Cc3ccc4c(c3)nnn4C)c(=O)c21 [1(12), 2-([1,4]diazepan-1-yl)-3-(2-butyn-1-yl)-5-[(1-methyl-1H-benzotriazol-5-yl)methyl]-3,5-dihydro-imidazo[4,5-d]pyridazin-4-one] | 4 | –
5 | CC#CCn1c(N2CCCNCC2)nc2cnn(Cc3nc4c(C)cccc4o3)c(=O)c21 [1(13), 2-([1,4]diazepan-1-yl)-3-(2-butyn-1-yl)-5-[(4-methyl-benzoxazol-2-yl)methyl]-3,5-dihydro-imidazo[4,5-d]pyridazin-4-one] | 5 | –
6 | CC#CCn1c(N2CCNCC2)nc2cnn(Cc3nc(C)c4ccccc4n3)c(=O)c21 [Example 1, 2-(piperazin-1-yl)-3-(2-butyn-1-yl)-5-[(4-methyl-quinazolin-2-yl)methyl]-3,5-dihydro-imidazo[4,5-d]pyridazin-4-one] | – | no toxic side effects could be detected
7 | CC#CCn1c(N2CCNCC2)nc2cnn(Cc3cc(C)c4nc(C)c(C)nc4c3)c(=O)c21 [Example 2, 2-(piperazin-1-yl)-3-(2-butyn-1-yl)-5-[(2,3,8-trimethyl-quinoxalin-6-yl)methyl]-3,5-dihydro-imidazo[4,5-d]pyridazin-4-one] | 14 | –
